Reference: patent publication US11820975B2, “Human blood brain barrier model” (National Research Council of Canada, priority 2014, dated 2023)

Tests used:
[1] = tested on: AF-iPSC-BECs; type: in vitro ADME, human; conditions: AF-iPSC-BECs vs. HBMECs (Cell Systems), FIG. 6C
[2] = tested on: AF-iPSC-derived neurons; type: cell-based, human
[3] = tested on: AF-iPSC-BECs; type: cell-based, human; conditions: BBB model cultured with the agent; ACMx2 for 24 hours; FIG. 7A-B

With `O=C([O-])c1ccccc1-c1c2ccc(=O)cc-2oc2cc([O-])ccc12.[Na+].[Na+]` [Sodium fluorescein] the “Sodium fluorescein permeability of AF-iPSC-BECs compared with HBMECs” value [1] was “significantly lower”.

In the case of `NC1=N[C@H](O)[C@H]2[C@H]3O[C@]4(O)O[C@@H]([C@@H](O)[C@@]2(N1)[C@@H]4O)[C@]3(O)CO` [TTX, tetrodotoxin], the “Effect on spiking activity” value [2] was “eliminated spiking activity”.

In the case of `C[C@]12CCC(=O)C=C1CC[C@@H]1[C@@H]2[C@@H](O)C[C@@]2(C)[C@H]1CC[C@]2(O)C(=O)CO` [hydrocortisone], the “Change in TEER value” [3] was “significant increase”.
